In patent US20250368683A1, “METHOD FOR TREATING OR PREVENTING BRONCHIAL ALLERGIC DISEASES WITH PEPTIDE COMPOSITION” (Greenyn Biotechnology Co., Ltd, priority 2024, published 2025):

Tests used:
Type in all cases: cell-based, mouse
IL-13 = assay: Cell test: IL-13 secretion by P815 cells stimulated with compound 48/80 (ELISA); parameters: IL-13 inhibitory activity: unit not given here; conditions: for IL-13 inhibitory activity: 20 minutes pre-incubation with polypeptide, then compound 48/80, total 6 hours, supernatant ELISA; for IL-13 inhibitory activity (in words): compound 48/80
Description: (§1) In this example, the cell line used was the P815 mouse mastocytoma cell line, and the allergen was compound 48/80. To start with, each of the polypeptides represented by SEQ ID No. 1-10 was co-cultured with the P815 cells for 20 minutes, was then added with compound 48/80, and then continued co-culturing for a total of 6 hours. When the culturing process was completed, the supernatants were collected, and the amounts of IL-4 and IL-13 secretions were analyzed by enzyme-linked immunosorbent assay (ELISA), with the results shown in FIG. 1 and Table 2.

IL-4 = assay: Cell test: IL-4 secretion by P815 cells stimulated with compound 48/80 (ELISA); parameters: unit not given here; conditions: 20 minutes pre-incubation with polypeptide, then compound 48/80, total 6 hours, supernatant ELISA
Description: as §1

Th2 pathway = assay: Cell test: overall inhibitory activity on the Th2 pathway (IL-4 and IL-13, P815 cells); conditions: all in all, from IL-4 and IL-13 results in P815 cells
Description: as §1
It can be known from the results in FIG. 1 and Table 2 that the polypeptides represented by SEQ ID No. 1-10 had IL-4 inhibitory activity; that the polypeptides represented by SEQ ID NO.

Row | Sequence | IL-13 inhibitory activity (IL-13) | IL-13 inhibitory activity (in words) (IL-13) | IL-4 inhibitory activity (IL-4) | inhibitory activity on the Th2 pathway (in words) (Th2 pathway)
1 | ALYPLLTTLTD [SEQ ID No. 5] | −71.4 | had IL-13 inhibitory activity | −13.1 | –
2 | GHCGCSSG [SEQ ID No. 8] | 0.0 | – | −38.5 | relatively good inhibitory activity
3 | IGVDEHYTPI [SEQ ID No. 10] | 0.0 | – | −7.2 | –
4 | INFVTEEDKR [SEQ ID No. 1] | 0.0 | – | −25.2 | –
5 | LGVTNINISDP [SEQ ID No. 2] | 0.0 | – | −16.0 | –
6 | LVGTDVATAQAP [SEQ ID No. 7] | 0.0 | – | −23.9 | –
7 | NFIVTGLQDIM [SEQ ID No. 9] | −57.1 | had IL-13 inhibitory activity | −11.5 | relatively good inhibitory activity
8 | RLTDYFTID [SEQ ID No. 3] | 0.0 | – | −8.9 | –
9 | SMNLSLVLQVV [SEQ ID No. 4] | −21.4 | had IL-13 inhibitory activity | −32.9 | relatively good inhibitory activity
10 | VRYLEWSNIESIIA [SEQ ID No. 6] | −60.7 | – | −22.2 | relatively good inhibitory activity
